In PubChem BioAssay (NCI):
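Abbreviation: GI50, concentration required for 50% inhibition of growth. TGI marks complete inhibition of growth.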

Tests used:
Test in all cases: growth of human tumour cells (NCI), 384-well format
[1] = tested on: A549 NSCLC
[2] = tested on: HS 578T breast
[3] = tested on: NCI-H460 NSCLC
[4] = tested on: UACC-62 melanoma
[5] = tested on: A498 renal
[6] = tested on: SR leukemia
[7] = tested on: RPMI-8226 leukemia
[8] = tested on: DU-145 prostate
[9] = tested on: M14 melanoma
[10] = tested on: 786-0 renal
[11] = tested on: HT29 colon
[12] = tested on: IGROV1 ovarian
[13] = tested on: CCRF-CEM leukemia
[14] = tested on: SF-539 CNS
[15] = tested on: NCI-H322M lung
[16] = tested on: MDA-MB-435 melanoma
[17] = tested on: NCI-H23 lung
[18] = tested on: HOP-62 NSCLC
[19] = tested on: NCI-H226 lung
[20] = tested on: SNB-19 CNS
[21] = tested on: COLO 205 colon
[22] = tested on: RXF 393 renal
[23] = tested on: MOLT-4 leukemia
[24] = tested on: EKVX NSCLC
[25] = tested on: CAKI-1 renal
[26] = tested on: U251 glioblastoma
[27] = tested on: NCI/ADR-RES ovarian
[28] = tested on: SF-295 CNS
[29] = tested on: T-47D breast

Structure (SMILES): COc1cc(N2CCC(N3CCN(C)CC3)CC2)ccc1Nc1ncc(Cl)c(Nc2ccccc2P(C)(C)=O)n1
- TGI [1]: > 23.4 µM
- GI50 [2]: 1.86 µM
- TGI [2]: 4.89 µM
- GI50 [3]: 4.35 µM
- TGI [3]: > 100 µM
- GI50 [4]: 3.5 µM
- TGI [4]: > 100 µM
- GI50 [5]: 2.32 µM
- TGI [5]: 6.1 µM
- GI50 [6]: 0.0248 µM
- TGI [6]: 0.0545 µM
- GI50 [7]: 1.77 µM
- TGI [7]: 5.38 µM
- GI50 [8]: 2.5 µM
- TGI [8]: 10.5 µM
- GI50 [9]: 3.48 µM
- TGI [9]: > 100 µM
- GI50 [10]: 3.22 µM
- TGI [10]: > 43.8 µM
- GI50 [11]: 1.11 µM
- TGI [11]: > 100 µM
- GI50 [12]: 1.18 µM
- TGI [12]: 3.7 µM
- GI50 [13]: 3.45 µM
- TGI [13]: 9.7 µM
- GI50 [14]: 1.97 µM
- TGI [14]: 4.23 µM
- GI50 [15]: 2.08 µM
- TGI [15]: 6.39 µM
- GI50 [16]: 25.5 µM
- TGI [16]: > 100 µM
- GI50 [17]: 1.87 µM
- TGI [17]: 5.19 µM
- GI50 [18]: 2.33 µM
- TGI [18]: > 50.2 µM
- GI50 [19]: 0.49 µM
- TGI [19]: 2.53 µM
- GI50 [20]: 5.97 µM
- TGI [20]: > 100 µM
- GI50 [21]: 1.65 µM
- TGI [21]: 4 µM
- GI50 [22]: 2.09 µM
- TGI [22]: 4.52 µM
- GI50 [23]: 1.9 µM
- TGI [23]: 4.1 µM
- GI50 [24]: 1.46 µM
- TGI [24]: 3.48 µM
- GI50 [25]: 2.38 µM
- TGI [25]: 6.28 µM
- GI50 [26]: 6.2 µM
- TGI [26]: > 100 µM
- GI50 [27]: > 100 µM
- TGI [27]: > 100 µM
- GI50 [28]: 2.92 µM
- TGI [28]: > 29.5 µM
- GI50 [29]: > 25.8 µM
- TGI [29]: > 100 µM
